From article PMC9246869, “Allosteric inhibition of PPM1D serine/threonine phosphatase via an altered conformational state” (Nature Communications, 2022)
Several values for one entry are separate records, joined by “and”; a condition that tells them apart may be missing. Equal entries are not always repeated.

Key:
PPM1DΔflap = target: T1, PPM1DΔflap (Homo sapiens, UniProt O15297, DEL219-231/DEL235-284/E287S/S285N); assay: Differential scanning fluorimetry (DSF); type: binding; settings: PPM1D Dflap, individual trials; in °C (unit assumed)
T1 construct: PPM1D1–218-GGSNGS-288–420 (PPM1D∆flap); His(6)-SUMO (N, cleaved yes); made in house; host or cells: E. coli BL21 (DE3)
T1 sequence (O15297 with tags, fused parts or gaps DEL219-231/DEL235-284/S285N/E287S): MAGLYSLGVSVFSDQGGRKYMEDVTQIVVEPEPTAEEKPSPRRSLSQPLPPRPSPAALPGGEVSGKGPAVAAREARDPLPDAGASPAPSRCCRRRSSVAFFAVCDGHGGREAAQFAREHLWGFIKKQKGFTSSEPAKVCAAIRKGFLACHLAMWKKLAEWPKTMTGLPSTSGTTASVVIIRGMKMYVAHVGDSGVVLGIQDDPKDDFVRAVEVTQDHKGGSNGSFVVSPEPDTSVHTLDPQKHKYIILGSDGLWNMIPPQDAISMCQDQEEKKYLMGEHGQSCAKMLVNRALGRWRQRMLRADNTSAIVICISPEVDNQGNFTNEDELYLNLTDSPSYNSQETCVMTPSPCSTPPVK
Description: (§1) The purified protein constructs were mixed in the assay buffer containing 25 mM HEPES pH 7.5, 10 mM MgCl2, 150 mM NaCl. The sample preparation for the DSF assay included incubating the protein constructs (final concentration 0.2–0.4 mg/mL) with either DMSO alone (control) or with 40 µM GSK2830371 for 30 min before the addition of the Sypro orange dye (final concentration 10×). The final reaction volume of 10 µL was pipetted into a 384 multi-well clear plate (Light Cycler 480), sealed using a foil and spun down at 1000 × g for 2 min. The fluorescence emission intensity of the Sypro Orange dye was monitored in a LightCycler-480 instrument by running the Protein Melt program. The program was run in a continuous acquisition mode from 25 °C to 95 °C with a ramp rate of 0.06 °C/s (with 10 acquisitions/°C). The data (first derivative of the fluorescence signal as a function of temperature) was analyzed using the LightCycler-480 software for measuring the Tm values with and without the compound. A separate control with buffer alone and buffer with compound was run in the same plate to subtract out the potential interactions of the buffer components and/or the compound with the dye.

PPM1DΔhinge = target: T2, PPM1DΔhinge (Homo sapiens, UniProt O15297, DEL155-163/G166S/M164G/T165G); assay: Differential scanning fluorimetry (DSF); type: binding; settings: PPM1D Dhinge, in °C (unit assumed)
T2 construct: PPM1D1–154-GGS-167–420 (PPM1D∆hinge); His(6)-SUMO (N, cleaved yes); made in house; host or cells: E. coli BL21 (DE3)
T2 sequence (O15297 with tags, fused parts or gaps DEL155-163/M164G/T165G/G166S): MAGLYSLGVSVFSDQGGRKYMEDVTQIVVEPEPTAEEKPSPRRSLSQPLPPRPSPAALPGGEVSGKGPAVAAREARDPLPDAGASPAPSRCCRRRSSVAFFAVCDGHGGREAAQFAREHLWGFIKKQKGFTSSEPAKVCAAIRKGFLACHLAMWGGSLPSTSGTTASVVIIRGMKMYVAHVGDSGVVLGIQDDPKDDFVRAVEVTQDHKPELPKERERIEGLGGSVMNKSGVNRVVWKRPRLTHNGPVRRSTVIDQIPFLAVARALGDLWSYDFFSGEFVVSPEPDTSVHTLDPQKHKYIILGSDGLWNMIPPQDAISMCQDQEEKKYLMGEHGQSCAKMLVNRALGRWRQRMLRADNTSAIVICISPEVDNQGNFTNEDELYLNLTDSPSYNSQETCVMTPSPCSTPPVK
Description: as §1

Cc1ncc(Cl)cc1NCc1ccc(C(=O)N[C@@H](CC2CCCC2)C(=O)NC2CC2)s1 [GSK2830371]
DSF melting temperature with GSK2830371 (PPM1DΔflap): 63.0141 and 62.619 and 62.5754 and 62.548 | DSF melting temperature with GSK2830371, Average (PPM1DΔhinge; average of 4 trials): 55.5129 | DSF melting temperature with GSK2830371 (PPM1DΔhinge; individual trials): 55.7617 and 55.9693 and 55.1773 and 55.1434
